Patent US20240101602A1, “ANTIMICROBIAL PEPTIDES AND METHOD OF PREVENTING OR TREATING INFECTION BY USING THE SAME” (priority 2020, published 2024)
Values after ≈ are worked out from the molar mass of the structure shown. Like-named read-outs stand apart in the source and are kept apart here. Residues, ends and D or L forms follow the SMILES beside them. *: point of attachment. Myristoyl = CCCCCCCCCCCCCC(=O)*

What was measured:
Pcc = assay: In planta pathogen inoculation assay, lesion diameter; assay type: in vivo, Pectobacterium carotovorum subsp. carotovorum; conditions: detached leaves of tomato L390 and leaves of Arabidopsis Col0; final peptide concentration 16 μg/mL; 16 to 28 hours post-inoculation
Bc = assay: as above; assay type: in vivo, Botrytis cinerea; conditions: detached leaves of tomato L390 and leaves of Arabidopsis Col0; final peptide concentration 16 μg/mL; 47 to 70 hours post-inoculation
Erwinia chrysanthemi = assay type: cell-based
Procedure: (§1) The effect of peptide length on the antimicrobial activity was investigated by deciding the minimal inhibitory concentration (MIC) and minimal bactericidal concentration (MBC) for each peptide against the pathogen with the media and growth conditions of phytopathogenic bacteria and E. coli as described in Table 1. Single bacterial colony grown on an optimal rich agar medium was picked, and each grew in 3 mL of the same rich liquid medium for 4 to 6 h. For experiments carried out in the rich medium, the bacterial broth culture was then diluted in the same medium to give a final concentration of OD600=0.08, and then further diluted 100 folds in the same medium. For experiments carried out in the minimal medium, the bacterial cells were collected from the bacterial liquid culture by centrifugation, re-suspended in an optimal minimal medium to give a final concentration of OD600=0.08, and then further diluted 100 folds in the same minimal medium. Fifty microliters of serially diluted peptides (2-fold the final concentration) were added in a 96-well polystyrene plate with 50 μL of the bacterial culture. […] The plates were incubated at an optimal temperature without shaking. […] MBC was determined as the lowest peptide concentration at which no colonies formed. The experiments were conducted in an optimal minimal medium for each pathogen. The media and growth conditions were described in Tables 2 and 3. MIC and MBC values were determined following the procedures described above. […] Fifty microliters of serially diluted peptides (2-fold the final concentration) were added in a 96-well polystyrene plate with 50 μL of the fungal spore suspension.

[1] = system: Pectobacterium carotovorum subsp. carotovorum; assay type: cell-based
Procedure: as §1

Cgl FST02 = assay type: cell-based, Colletotricum gloeosporioides
Procedure: (§2) The experiments were conducted in an optimal minimal medium for each pathogen. The media and growth conditions were described in Tables 2 and 3. MIC and MBC values were determined following the procedures described above. […] Fifty microliters of serially diluted peptides (2-fold the final concentration) were added in a 96-well polystyrene plate with 50 μL of the fungal spore suspension. […] The plates were incubated at an optimal temperature without shaking. […] MFC was determined as the lowest peptide concentration at which no fungal growth was observed.

[2] = system: bacteria, fungal spores, and fungal mycelia; assay type: cell-based; conditions: SYTOX Green, crude peptides, room temperature in dark for 2 h
[3] = system: Candida albicans 12-99 (fluconazole-resistant)
Botrytis cinerea = assay type: cell-based
Procedure: as §2

[4] = system: Ralstonia solanacearum strain Pss4; conditions: Rs Pss4; optimal minimal medium, crude peptides (Table 9)
[5] = system: Candida albicans 89 (echinocandin-resistant)
[6] = system: Ralstonia solanacearum strain Pss190; conditions: Rs Pss190; optimal minimal medium, crude peptides (Table 9)
[7] = system: Xanthomonas euvesicatoria strain Xvt28; assay: IC50 of bacterial growth (OD600) in rich liquid medium; assay type: cell-based; conditions: Xev Xvt28, 24 h, purified peptides
Procedure: (§3) To measure the antimicrobial activity, single colony grown on an optimal rich agar medium for each bacterium was picked and grew in 3 mL of the same rich liquid medium for 4 to 6 h. The bacterial culture was then diluted in the same medium to give a final concentration of OD600=0.08 and then further diluted […] in the same medium. In each well of a 96-well polystyrene plate, 90 μL of the diluted culture was mixed with 10 μL of the peptide to give a peptide concentration of 0, 2, 10, and 20 μg/mL (final cell concentration is 5×10^5 CFU/mL). OD600 was measured after incubation at an optimal temperature for 24 h. IC50 was determined as the lowest peptide concentration inhibiting 50% of bacterial growth.

[8] = system: Xanthomonas campestris pv. campestris strain Xcc17; assay: as above; assay type: cell-based; conditions: Xcc Xcc17, 24 h, purified peptides
Procedure: as §3

[9] = system: Escherichia coli strain DH5a; conditions: Eco DH5α; rich medium, 24 h, purified peptides
[10] = Circular dichroism spectroscopy, secondary structure deconvolution
[11] = system: Agrobacterium tumefaciens strain Atu C58C1; conditions: rich medium, 24 h, purified peptides
[12] = system: Xanthomonas oryzae pv. oryzae strain Xoo28; conditions: Xoo Xoo28; rich medium, 24 h, purified peptides
[13] = Candida albicans SC5314 (Tables 10, 14)

| Compound | disease lesions caused by Pcc (Pcc) | disease lesions caused by Bc (Bc) | MBC/MFC (Erwinia chrysanthemi) | MIC (Erwinia chrysanthemi) | MBC/MFC [1] | MIC [1] | membranolytic effect on the cell walls of bacteria, fungal spores, and fungal mycelia [2] | MBC/MFC (Botrytis cinerea) | MBC/MFC [4] | MIC [4] | MBC/MFC [6] | MIC [6] | further results |
| --- | --- | --- | --- | --- | --- | --- | --- | --- | --- | --- | --- | --- | --- |
| CCCCCCCCCCCCCC(=O)N[C@@H](Cc1c[nH]c2ccccc12)C(=O)N[C@@H](CCCCN)C(=O)N[C@@H](CCCCN)C(=O)N[C@@H](CC(C)C)C(=O)N[C@@H](CCCCN)C(=O)N[C@@H](CCCCN)C(=O)N[C@@H](CC(C)C)C(=O)N[C@@H](CC(C)C)C(=O)N[C@@H](CCCCN)C(=O)N[C@@H](CCCCN)C(=O)N[C@@H](CC(C)C)C(=O)N[C@@H](CCCCN)C(=O)N[C@@H](CCCCN)C(=O)N[C@@H](CC(C)C)C(N)=O [pepD2M] (Myristoyl-WKKLKKLLKKLKKL-NH2) | significantly reduced disease lesions | significantly reduced disease lesions | 6.0 µg/mL (≈ 2.99 µM) | 4.0 µg/mL (≈ 2 µM) | 4.0 µg/mL (≈ 2 µM) | 4.0 µg/mL (≈ 2 µM) | significant membranolytic effect | 12.0 µg/mL (≈ 5.99 µM) | 10.0 µg/mL (≈ 4.99 µM) | 8.0 µg/mL (≈ 3.99 µM) | 8.0 µg/mL (≈ 3.99 µM) | 8.0 µg/mL (≈ 3.99 µM) | MFC (Cgl FST02): 14.0 µg/mL (≈ 6.98 µM); MBC/MFC (Cgl FST02; Cgl FST02, optimal minimal medium, crude peptides (Table 9)): 16.0 µg/mL (≈ 7.98 µM); MFC [3]: 64 µg/mL (≈ 31.9 µM); MIC [3]: 8 µg/mL (≈ 3.99 µM); MFC (Botrytis cinerea): 18.7 µg/mL (≈ 9.33 µM); MFC (Candida albicans SC5314; [13]): 64 µg/mL (≈ 31.9 µM); MIC (Candida albicans SC5314; [13]): 32 µg/mL (≈ 16 µM); MFC [5]: 64 µg/mL (≈ 31.9 µM); MIC [5]: 32 µg/mL (≈ 16 µM) |
| CCCCCCCCCCCCCC(=O)N[C@@H](Cc1c[nH]c2ccccc12)C(=O)N[C@@H](CCCCN)C(=O)N[C@@H](CCCCN)C(=O)N[C@@H](CC(C)C)C(=O)N[C@@H](CCCCN)C(=O)N[C@@H](CCCCN)C(=O)N[C@@H](CC(C)C)C(=O)N[C@@H](CC(C)C)C(=O)N[C@@H](CCCCN)C(=O)N[C@@H](CCCCN)C(=O)N[C@@H](CC(C)C)C(N)=O [pepD3M] (Myristoyl-WKKLKKLLKKL-NH2) | significantly reduced disease lesions | significantly reduced disease lesions | 6.0 µg/mL (≈ 3.67 µM) | 5.0 µg/mL (≈ 3.06 µM) | 4.0 µg/mL (≈ 2.45 µM) | 4.0 µg/mL (≈ 2.45 µM) | significant membranolytic effect | 6.0 µg/mL (≈ 3.67 µM) | 12.0 µg/mL (≈ 7.34 µM) | 8.0 µg/mL (≈ 4.89 µM) | 14.0 µg/mL (≈ 8.56 µM) | 12.0 µg/mL (≈ 7.34 µM) | MBC/MFC (Cgl FST02): 14.0 µg/mL (≈ 8.56 µM); MIC (Cgl FST02): 14.0 µg/mL (≈ 8.56 µM); MIC (Botrytis cinerea): 5.3 µg/mL (≈ 3.24 µM) |
| Ac-WKLLKKLLKLLKKLLKLL-NH2 [pepB] |  |  |  |  |  |  |  |  |  |  |  |  | IC50 [7]: 16.7 µg/mL; IC50 [8]: — (“—” indicates no antimicrobial activity being detected at the highest peptide concentration (20 μg/mL) tested in this study.); IC50 [9]: — (“—” indicates no antimicrobial activity being detected at the highest peptide concentration (20 μg/mL) tested in this study.); α-helix formation ([10]; 10% TFE): 90%; α-helix content ([10]; dissolved in water, structural deconvolution of CD spectra): about 25%; IC50 [11]: — (“—” indicates no antimicrobial activity being detected at the highest peptide concentration (20 μg/mL) tested in this study.); MIC (Candida albicans SC5314; Candida albicans SC5314, 48 h at 35° C., 0.125 to 64 μg/mL (Table 5)): — (“—” indicates no antimicrobial activity being detected at the highest peptide concentration (64 μg/mL) tested.); IC50 [12]: — (“—” indicates no antimicrobial activity being detected at the highest peptide concentration (20 μg/mL) tested in this study.) |
